Results published in patent publication US20100179205A1, “Composition for Enhanced Antiparasitic Activity” (Intervet International B.V., priority 2006, published 2010).

System: Rhipicephalus sanguineus nymphs
Test: Efficacy against Rhipicephalus sanguineus on infested guinea pigs, topical bath treatment
Assay type: in vivo
Details: for average number of detached ticks per animal (detachment effect): bath treatment, 24 hours after treatment, guinea pigs infested with 100 nymphs; for overall acaricidal efficacy against R. sanguineus-nymphs: compared to the control group; for average number of engorged ticks per animal: engorged ticks dropping from d4 to d8; for average number of dead ticks after detachment: mortality assessed 24 hours after detachment
Protocol: Efficacy against Rhipicephalus sanguineus
Guinea pigs were infested with 100 nymphs of Rhipicephalus sanguineus (d0). Guinea pigs (n=3) were treated topically (bath treatment) with atipamezol (7.8 ppm), amitraz (2.0 ppm; 3.9 ppm) and two combinations of both (7.8 ppm atipamezol+2.0 ppm amitraz; 7.8 ppm atipamezol+3.9 ppm amitraz), respectively (d1). The control group remained untreated.
The number of detached ticks was assessed 1, 3, 6 and 24 hours after treatment (detachment effect).
The mortality of detached ticks was assessed 24 hours after detachment.
The average number of engorged ticks dropping per animal from d4 to d8 was assessed to determine the overall acaricidal efficacy compared to the control group.

SMILES	average number of detached ticks per animal (detachment effect) (2.0 ppm amitraz)	overall acaricidal efficacy against R. sanguineus-nymphs (2.0 ppm amitraz)	average number of engorged ticks per animal (2.0 ppm amitraz)	average number of dead ticks after detachment (2.0 ppm amitraz)	average number of detached ticks per animal (detachment effect) (3.9 ppm amitraz)	overall acaricidal efficacy against R. sanguineus-nymphs (3.9 ppm amitraz)	average number of engorged ticks per animal (3.9 ppm amitraz)	average number of dead ticks after detachment (3.9 ppm amitraz)	average number of detached ticks per animal (detachment effect) (7.8 ppm atipamezol)	overall acaricidal efficacy against R. sanguineus-nymphs (7.8 ppm atipamezol)	average number of engorged ticks per animal (7.8 ppm atipamezol)	average number of dead ticks after detachment (7.8 ppm atipamezol)	acaricidal/insecticidal effect (in words) (atipamezole alone)
Cc1ccc(N=CN(C)C=Nc2ccc(C)cc2C)c(C)c1 [amitraz, 1,5-di-(2,4-dimethylphenyl)-3-methyl-1,3,5-triazapenta-1,4-diene]	29.7	84%	8.7	24.3	43.7	100%	0	39.7	–	–	–	–	–
CCC1(c2cnc[nH]2)Cc2ccccc2C1 [atipamezol, 4(5)-(2,3-dihydro-2-ethyl-1H-inden-2-yl)imidazole]	–	–	–	–	–	–	–	–	2.0	63%	20.7	1.3	does not show an acaricidal/insecticidal effect
